# Experiments:
# Green foxtail [1] = test: Test D green foxtail; assay type: in vivo
# Description: (§1) Seeds, tubers, or plant parts of Alexandergrass (Brachiaria plantaginea), bermuda-grass (Cynodon dactylon), common pursiane (Portulaca oleracea), common ragweed (Ambrosia elatior), common groundsel (Senecio vulgaris), dallisgrass (Paspalum dilatatum), goosegrass (Eleusine indica), guineagrass (Panicum maximum), itchgrass (Rottboellia exaltata), Johnson grass (Sorghum halepense), large crabgrass (Digitaria sanguinalis), pitted morningglory (Ipomoea lacunosa), purple nutsedge (Cyperus rotundus), sandbur (Cenchrus echinatus), sourgrass (Trichachne insularis), Spanishneedles (Bidens bipinnata), surinam grass (Brachiaria decumbens) and tall mallow (Malva sylvestris) were planted into greenhouse pots of flats containing greenhouse planting medium. Plant species were grown in separate pots or individual compartments. Preemergence applications were made within one day of planting the seed or plant part.
# (§2) Test chemicals were formulated in a non-phytotoxic solvent mixture which included a surfactant and applied preemergence to the surface of the pot containing seeds in a sandy loam soil. Untreated control pots and treated pots were placed in the greenhouse for growth and visually evaluated for injury 14 to 21 days after herbicide application. Plant response ratings, summarized in Table C, are based on a 0 to 100 scale where 0 is no injury and 100 is complete control. A dash (−) response means no test result.
# Johnson grass = test: Test D Johnson grass; assay type: in vivo, Sorghum halepense; conditions: Preemergence, 0 to 100 scale
# How it was run: (§3)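 Greenhouse pots, seeds in sandy loam; compounds formulated in non-phytotoxic solvent with surfactant; preemergence treatments went on the soil surface within one day of planting. Injury rated visually 14 to 21 days after application on a 0 (none) to 100 (complete control) scale.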
# itchgrass = test: Test D itchgrass; assay type: in vivo, Rottboellia exaltata; conditions: Preemergence, 0 to 100 scale
# How it was run: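 Scoring used a 0–100 visual injury scale, with 0 meaning no effect and 100 complete control, assessed 14–21 days after application alongside untreated pots. Preemergence treatments went onto sandy loam surfaces of separately potted seeds within a day of sowing.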
# large crabgrass = test: Test D large crabgrass; assay type: in vivo, Digitaria sanguinalis; conditions: Preemergence, 0 to 100 scale
# Description: as §1, §2
# bermuda-grass = test: Test D bermudagrass; assay type: in vivo, Cynodon dactylon; conditions: Preemergence, 0 to 100 scale
# How it was run: as §3
# pitted morningglory = test: Test D pitted morningglory; assay type: in vivo, Ipomoea lacunosa; conditions: Preemergence, 0 to 100 scale
# How it was run: as §3
# Green foxtail [2] = test: Test D green foxtail; assay type: in vivo; conditions: Preemergence, 0 to 100 scale
# How it was run: as §3
# Alexandergrass = test: Test D Alexandergrass; assay type: in vivo, Brachiaria plantaginea; conditions: Preemergence, 0 to 100 scale
# How it was run: as §3
# Spanishneedles = test: Test D Spanishneedles; assay type: in vivo, Bidens bipinnata; conditions: Preemergence, 0 to 100 scale
# Description: as §1, §2
# tall mallow = test: Test D tall mallow; assay type: in vivo, Malva sylvestris; conditions: Preemergence, 0 to 100 scale
# How it was run: as §3
# common ragweed = test: Test D common ragweed; assay type: in vivo, Ambrosia elatior; conditions: Preemergence, 0 to 100 scale
# Description: as §1, §2
# surinam grass = test: Test D surinam grass; assay type: in vivo, Brachiaria decumbens; conditions: Preemergence, 0 to 100 scale
# Description: as §1, §2
# dallisgrass = test: Test D dallisgrass; assay type: in vivo, Paspalum dilatatum; conditions: Preemergence, 0 to 100 scale
# Description: as §1, §2
# guineagrass = test: Test D guineagrass; assay type: in vivo, Panicum maximum; conditions: Preemergence, 0 to 100 scale
# How it was run: as §3
# common groundsel = test: Test D common groundsel; assay type: in vivo, Senecio vulgaris; conditions: Preemergence, 0 to 100 scale
# Description: as §1, §2
# [3] = Rate 64 g/ha, Preemergence; 0 to 100 scale, 0 no injury, 100 complete control
# [4] = Rate 125 g/ha, Preemergence; 0 to 100 scale, 0 no injury, 100 complete control
# [5] = Rate 16 g/ha, 0 no injury, 100 complete control
# [6] = Rate 32 g/ha, 0 no injury, 100 complete control
# [7] = Rate 64 g/ha, 0 no injury, 100 complete control
# [8] = Rate 125 g/ha, 0 no injury, 100 complete control
structure (smiles),measurement,setting,value
Cc1cccc(C)c1-n1c(=O)on(C(=O)N(c2ccccc2)C(C)C)c1=O [Compound 46],"Plant response rating, Green foxtail","Green foxtail [1]; Preemergence; Rate 16 g/ha; 0 to 100 scale, 0 no injury, 100 complete control",0
same,"Plant response rating, Green foxtail","Green foxtail [1]; Preemergence; Rate 32 g/ha; 0 to 100 scale, 0 no injury, 100 complete control",0
same,"Plant response rating, Green foxtail","Green foxtail [1]; Rate 16 g/ha; Preemergence; 0 to 100 scale, 0 no injury, 100 complete control",0
same,"Plant response rating, Green foxtail","Green foxtail [1]; Rate 32 g/ha; Preemergence; 0 to 100 scale, 0 no injury, 100 complete control",75
same,Green foxtail plant response rating,Green foxtail [1]; [3],30
same,"Plant response rating, Green foxtail",Green foxtail [1]; [3],30
same,Green foxtail plant response rating,Green foxtail [1]; [4],40
same,"Plant response rating, Green foxtail",Green foxtail [1]; [4],40
same,"Plant response rating, Green foxtail",Green foxtail [1]; Rate 250 g/ha; Preemergence; 0 to 100 scale,100
same,"Plant response rating, Green foxtail","Green foxtail [1]; Rate 500 g/ha, Preemergence; 0 to 100 scale",100
same,"Plant response rating, Johnsongrass",Johnson grass; [5],0
same,"Plant response rating, Johnsongrass",Johnson grass; [6],0
same,"Plant response rating, Johnsongrass",Johnson grass; [7],0
same,"Plant response rating, Johnsongrass",Johnson grass; [8],40
same,"Plant response rating, Johnsongrass",Johnson grass; Rate 250 g/ha,40
same,"Plant response rating, Johnsongrass",Johnson grass; Rate 500 g/ha,60
same,"Plant response rating, Itchgrass",itchgrass; [5],0
same,"Plant response rating, Itchgrass",itchgrass; [6],0
same,"Plant response rating, Itchgrass",itchgrass; [7],0
same,"Plant response rating, Itchgrass",itchgrass; [8],0
same,"Plant response rating, Itchgrass",itchgrass; Rate 250 g/ha,0
same,"Plant response rating, Itchgrass",itchgrass; Rate 500 g/ha,10
same,"Plant response rating, Large crabgrass",large crabgrass; [5],0
same,"Plant response rating, Large crabgrass",large crabgrass; [6],20
same,"Plant response rating, Large crabgrass",large crabgrass; [7],40
same,"Plant response rating, Large crabgrass",large crabgrass; [8],98
same,"Plant response rating, Large crabgrass",large crabgrass; Rate 250 g/ha,100
same,"Plant response rating, Large crabgrass",large crabgrass; Rate 500 g/ha,100
same,"Plant response rating, Bermudagrass",bermuda-grass; [5],65
same,"Plant response rating, Bermudagrass",bermuda-grass; [6],85
same,"Plant response rating, Bermudagrass",bermuda-grass; [7],98
same,"Plant response rating, Bermudagrass",bermuda-grass; [8],100
same,"Plant response rating, Bermudagrass",bermuda-grass; Rate 250 g/ha,100
same,"Plant response rating, Bermudagrass",bermuda-grass; Rate 500 g/ha,100
same,"Plant response rating, P. morninglory",pitted morningglory; [5],0
same,"Plant response rating, P. morninglory",pitted morningglory; [6],0
same,"Plant response rating, P. morninglory",pitted morningglory; [7],0
same,"Plant response rating, P. morninglory",pitted morningglory; [8],0
same,"Plant response rating, P. morninglory",pitted morningglory; Rate 250 g/ha,0
same,"Plant response rating, P. morninglory",pitted morningglory; Rate 500 g/ha,0
same,"Plant response rating, Green foxtail",Green foxtail [2]; Rate 250 g/ha,100
same,"Plant response rating, Green foxtail",Green foxtail [2]; Rate 500 g/ha,100
same,"Plant response rating, Alexandergrass",Alexandergrass; [5],0
same,"Plant response rating, Alexandergrass",Alexandergrass; [6],0
same,"Plant response rating, Alexandergrass",Alexandergrass; [7],40
same,"Plant response rating, Alexandergrass",Alexandergrass; [8],65
same,"Plant response rating, Alexandergrass",Alexandergrass; Rate 250 g/ha,75
same,"Plant response rating, Alexandergrass",Alexandergrass; Rate 500 g/ha,80
same,"Plant response rating, Spanishneedles",Spanishneedles; [5],0
same,"Plant response rating, Spanishneedles",Spanishneedles; [6],0
same,Spanishneedles plant response rating,Spanishneedles; [7],0
same,Spanishneedles plant response rating,Spanishneedles; [8],10
same,"Plant response rating, Spanishneedles",Spanishneedles; Rate 500 g/ha,20
same,"Plant response rating, Tall Mallow",tall mallow; [5],0
same,"Plant response rating, Tall Mallow",tall mallow; [6],0
same,Tall Mallow plant response rating,tall mallow; [7],0
same,Tall Mallow plant response rating,tall mallow; [8],10
same,"Plant response rating, Tall Mallow",tall mallow; Rate 250 g/ha,10
same,"Plant response rating, Tall Mallow",tall mallow; Rate 500 g/ha,10
same,"Plant response rating, C. ragweed",common ragweed; [5],0
same,"Plant response rating, C. ragweed",common ragweed; [6],0
same,"Plant response rating, C. ragweed",common ragweed; [7],0
same,"Plant response rating, C. ragweed",common ragweed; [8],0
same,"Plant response rating, C. ragweed",common ragweed; Rate 250 g/ha,0
same,"Plant response rating, C. ragweed",common ragweed; Rate 500 g/ha,0
same,"Plant response rating, Surinam grass",surinam grass; [5],0
same,"Plant response rating, Surinam grass",surinam grass; [6],0
same,Surinam grass plant response rating,surinam grass; [7],0
same,Surinam grass plant response rating,surinam grass; [8],0
same,"Plant response rating, Surinam grass",surinam grass; Rate 250 g/ha,10
same,"Plant response rating, Surinam grass",surinam grass; Rate 500 g/ha,30
same,"Plant response rating, Dallisgrass",dallisgrass; [5],20
same,"Plant response rating, Dallisgrass",dallisgrass; [6],40
same,"Plant response rating, Dallisgrass",dallisgrass; [7],40
same,"Plant response rating, Dallisgrass",dallisgrass; [8],100
same,"Plant response rating, Dallisgrass",dallisgrass; Rate 250 g/ha,100
same,"Plant response rating, Dallisgrass",dallisgrass; Rate 500 g/ha,100
same,"Plant response rating, Guineagrass",guineagrass; [5],0
same,"Plant response rating, Guineagrass",guineagrass; [6],0
same,"Plant response rating, Guineagrass",guineagrass; [7],30
same,"Plant response rating, Guineagrass",guineagrass; [8],30
same,"Plant response rating, Guineagrass",guineagrass; Rate 250 g/ha,65
same,"Plant response rating, Guineagrass",guineagrass; Rate 500 g/ha,85
same,"Plant response rating, Com. groundsel",common groundsel; [5],0
same,"Plant response rating, Com. groundsel",common groundsel; [6],0
same,"Plant response rating, Com. groundsel",common groundsel; [7],0
same,"Plant response rating, Com. groundsel",common groundsel; [8],0
same,"Plant response rating, Com. groundsel",common groundsel; Rate 250 g/ha,0
same,"Plant response rating, Com. groundsel",common groundsel; Rate 500 g/ha,0
Cc1ccccc1-n1c(=O)on(C(=O)N(c2ccc(F)cc2)C(C)C)c1=O [Compound 4],"Plant response rating, Johnsongrass",Johnson grass; [5],0
same,"Plant response rating, Johnsongrass",Johnson grass; [6],0
same,"Plant response rating, Johnsongrass",Johnson grass; [7],30
same,"Plant response rating, Johnsongrass",Johnson grass; [8],0
same,"Plant response rating, Johnsongrass",Johnson grass; Rate 250 g/ha,30
same,"Plant response rating, Johnsongrass",Johnson grass; Rate 500 g/ha,30
same,"Plant response rating, Itchgrass",itchgrass; [5],0
same,"Plant response rating, Itchgrass",itchgrass; [6],0
same,"Plant response rating, Itchgrass",itchgrass; [7],75
same,"Plant response rating, Itchgrass",itchgrass; [8],0
same,"Plant response rating, Itchgrass",itchgrass; Rate 250 g/ha,80
same,"Plant response rating, Itchgrass",itchgrass; Rate 500 g/ha,80
same,"Plant response rating, Large crabgrass",large crabgrass; [5],100
same,"Plant response rating, Large crabgrass",large crabgrass; [6],100
same,"Plant response rating, Large crabgrass",large crabgrass; [7],98
same,"Plant response rating, Large crabgrass",large crabgrass; [8],100
same,"Plant response rating, Large crabgrass",large crabgrass; Rate 250 g/ha,100
same,"Plant response rating, Large crabgrass",large crabgrass; Rate 500 g/ha,100
same,"Plant response rating, Bermudagrass",bermuda-grass; [5],0
same,"Plant response rating, Bermudagrass",bermuda-grass; [6],0
same,"Plant response rating, Bermudagrass",bermuda-grass; [7],0
same,"Plant response rating, Bermudagrass",bermuda-grass; [8],30
same,"Plant response rating, Bermudagrass",bermuda-grass; Rate 250 g/ha,98
same,"Plant response rating, Bermudagrass",bermuda-grass; Rate 500 g/ha,98
same,"Plant response rating, P. morninglory",pitted morningglory; [5],0
same,"Plant response rating, P. morninglory",pitted morningglory; [6],0
same,"Plant response rating, P. morninglory",pitted morningglory; [7],0
same,"Plant response rating, P. morninglory",pitted morningglory; [8],0
same,"Plant response rating, P. morninglory",pitted morningglory; Rate 250 g/ha,0
same,"Plant response rating, P. morninglory",pitted morningglory; Rate 500 g/ha,0
same,"Plant response rating, Alexandergrass",Alexandergrass; [5],20
same,"Plant response rating, Alexandergrass",Alexandergrass; [6],20
same,"Plant response rating, Alexandergrass",Alexandergrass; [7],80
same,"Plant response rating, Alexandergrass",Alexandergrass; [8],80
same,"Plant response rating, Alexandergrass",Alexandergrass; Rate 250 g/ha,90
same,"Plant response rating, Alexandergrass",Alexandergrass; Rate 500 g/ha,100
same,"Plant response rating, Spanishneedles",Spanishneedles; [5],0
same,Spanishneedles plant response rating,Spanishneedles; [7],0
same,Spanishneedles plant response rating,Spanishneedles; [8],40
same,"Plant response rating, Spanishneedles",Spanishneedles; Rate 500 g/ha,0
same,"Plant response rating, Tall Mallow",tall mallow; [5],0
same,"Plant response rating, Tall Mallow",tall mallow; [6],0
same,Tall Mallow plant response rating,tall mallow; [7],0
same,Tall Mallow plant response rating,tall mallow; [8],0
same,"Plant response rating, Tall Mallow",tall mallow; Rate 250 g/ha,30
same,"Plant response rating, Tall Mallow",tall mallow; Rate 500 g/ha,30
same,"Plant response rating, C. ragweed",common ragweed; [5],0
same,"Plant response rating, C. ragweed",common ragweed; [6],0
same,"Plant response rating, C. ragweed",common ragweed; [7],0
same,"Plant response rating, C. ragweed",common ragweed; [8],0
same,"Plant response rating, C. ragweed",common ragweed; Rate 250 g/ha,0
same,"Plant response rating, C. ragweed",common ragweed; Rate 500 g/ha,0
same,"Plant response rating, Surinam grass",surinam grass; [5],0
same,"Plant response rating, Surinam grass",surinam grass; [6],0
same,Surinam grass plant response rating,surinam grass; [7],65
same,Surinam grass plant response rating,surinam grass; [8],90
same,"Plant response rating, Surinam grass",surinam grass; Rate 250 g/ha,85
same,"Plant response rating, Surinam grass",surinam grass; Rate 500 g/ha,98
same,"Plant response rating, Dallisgrass",dallisgrass; [5],75
same,"Plant response rating, Dallisgrass",dallisgrass; [6],85
same,"Plant response rating, Dallisgrass",dallisgrass; [7],90
same,"Plant response rating, Dallisgrass",dallisgrass; [8],98
same,"Plant response rating, Dallisgrass",dallisgrass; Rate 250 g/ha,98
same,"Plant response rating, Dallisgrass",dallisgrass; Rate 500 g/ha,98
same,"Plant response rating, Guineagrass",guineagrass; [5],20
same,"Plant response rating, Guineagrass",guineagrass; [6],20
same,"Plant response rating, Guineagrass",guineagrass; [7],50
same,"Plant response rating, Guineagrass",guineagrass; [8],90
same,"Plant response rating, Guineagrass",guineagrass; Rate 250 g/ha,100
same,"Plant response rating, Guineagrass",guineagrass; Rate 500 g/ha,100
